Data on 7 compounds can be found in patent publication US20230247991A1, “ANTIMICROBIAL MIXTURE CONTAINING 4-(3-ETHOXY-4-HYDROXYPHENYL)BUTAN-2-ONE AND AN ORGANIC ACID COMPOUND, AND COSMETIC COMPOSITION CONTAINING SAME” (L'OREAL, priority 2017, published 2023).

Values joined by “and” are separate entries in the source; they are usually repeats but may differ in a detail not shown here. Equal entries are not always repeated.

Common to all, as to assay: MIC / FIC index synergy test, 96-well microplate, optical density at 620 nm
What all share (format): cell-based

For assay [1], the system named is Staphylococcus aureus ATCC 6538. The conditions noted are these: compound alone; for MIC alone: first concentration giving growth <= 25%. From the text:
(§1) FIC Index=([…]) with: • MICa with B: minimum concentration of product A in the combination A+B which makes it possible to obtain an inhibitory effect • MICb with A: minimum concentration of product B in the combination A+B which makes it possible to obtain an inhibitory effect. • MICa: minimum inhibitory concentration of product A alone. • MICb: minimum inhibitory concentration of product B alone. […] As regards the combinations tested, MICa with b and MICb with a are the respective concentrations of A and of B in the combinations which make it possible to obtain a microbial growth percentage of less than or equal to 25%. When the FIC index value is less than or equal to 1, it is considered that the combination of test compounds has a synergistic effect. The microbial strain Staphylococcus aureus ATCC 6538 and a double-concentration nutritive broth liquid culture medium were used. A 96-well microplate and an incubation temperature of 32.5° C. are used. […] Successive dilutions were made with the 1‰ agar solution. 50 μl of each of the daughter solutions obtained containing compound A or B are added to the microplate wells. 100 μl of Sabouraud liquid nutrient broth inoculated at double concentration with the strain Candida albicans and 50 μl of aqueous 1‰ agar solution are also added thereto. 50 μl of each of the daughter solutions obtained containing compound A and 50 μl of each of the daughter solutions obtained containing compound B are added to the microplate wells. 100 μl of Sabouraud liquid nutrient broth inoculated at double concentration with the strain Candida albicans are also added thereto. […] The test as described above (tests, absorbance controls and growth control) was performed again to test the combination A+B on the following strains Enterococcus faecalis, Staphylococcus aureus, Pseudomonas aeruginosa, Candida albicans.

Assay [2] deals with Candida albicans ATCC 10231. The conditions noted are these: compound alone; for MIC alone: first concentration giving growth <= 25%. From the text:
FIC Index=([…]) with: • MICa with B: minimum concentration of product A in the combination A+B which makes it possible to obtain an inhibitory effect • MICb with A: minimum concentration of product B in the combination A+B which makes it possible to obtain an inhibitory effect. • MICa: minimum inhibitory concentration of product A alone. • MICb: minimum inhibitory concentration of product B alone. […] The microbial strain Candida albicans ATCC 10231 and a double-concentration Sabouraud broth liquid culture medium were used. A 96-well microplate and an incubation temperature of 32.5° C. are used. […] Successive dilutions were made with the 1‰ agar solution. 50 μl of each of the daughter solutions obtained containing compound A or B are added to the microplate wells. 100 μl of Sabouraud liquid nutrient broth inoculated at double concentration with the strain Candida albicans and 50 μl of aqueous 1‰ agar solution are also added thereto. 50 μl of each of the daughter solutions obtained containing compound A and 50 μl of each of the daughter solutions obtained containing compound B are added to the microplate wells. 100 μl of Sabouraud liquid nutrient broth inoculated at double concentration with the strain Candida albicans are also added thereto. In the two cases (test and control), the inoculum represents the concentration of the strain Candida albicans present in the final volume of the wells (200 μl) and is between 2 and 6χ 10^5 cfu/ml of Candida albicans.

The test system of assay [3] is Pseudomonas aeruginosa ATCC 9027. The conditions noted are these: for microbial growth percentage: compound alone; for MIC of compound alone: first concentration giving growth <= 25%.
Text: as §1, with “25%. […]” for “25%. When the FIC index value is less than or equal to 1, it is considered that the combination of test compounds has a synergistic effect.”, “strain Pseudomonas aeruginosa” for “strain Staphylococcus aureus”, “ATCC 9027” for “ATCC 6538”

In assay [4] the test system is Aspergillus niger ATCC 6275.
Assay [5] has as its system Enterococcus faecalis ATCC 33186. The conditions noted are these: compound alone; for % MIC alone: first concentration giving growth <= 25%.
Text: as §1, with “25%. […]” for “25%. When the FIC index value is less than or equal to 1, it is considered that the combination of test compounds has a synergistic effect.”, “strain Enterococcus faecalis” for “strain Staphylococcus aureus”, “ATCC 33186” for “ATCC 6538”, “double-concentration BHI (Brain Heart Infusion)” for “double-concentration nutritive”

Setting [6] is: compound alone, 0.0025 weight %.
Setting [7] is: first concentration giving growth <= 25%.

With `CCOc1cc(CCC(C)=O)ccc1O` [A, 4-(3-ethoxy-4-hydroxyphenyl)butan-2-one], the microbial growth percentage was 67% and 63% and 66% in assay [1] (0.0625 weight %); 65% and 60% and 61% in assay [1] (0.125 weight %); 55% and 52% and 51% in assay [1] (0.25 weight %); 5% and 1% in assay [1] (0.5 weight %); 55% and 56% and 61% and 74% and 53% in assay [2] (0.025 weight %); 6% in assay [2] (0.2 weight %). Besides, the microbial growth percentage in assay [3] (0.25 weight %) is 79% and 78% and 87%; in assay [3] (0.5 weight %) it was 74% and 52% and 64%; in assay [4] (setting [6]) it was 84%; in assay [4] (compound alone, 0.025 weight %), 65% and 62%; in assay [4] (compound alone, 0.05 weight %) it was 40% and 32%; in assay [4] (compound alone, 0.0625 weight %) it was 84% and 96%. The microbial growth percentage was 40% and 41% in assay [4] (compound alone, 0.125 weight %); 6% and 7% in assay [4] (compound alone, 0.25 weight %); 5% in assay [4] (compound alone, 0.4 weight %); 15% and 28% and 16% in assay [5] (1 weight %); 24% in assay [5] (2 weight %). Further, the MIC alone was 0.5 weight % in assay [1]; 0.1 weight % and 0.2 weight % in assay [2]. Besides, in assay [4] (setting [7]), the “MIC of compound alone” value was 0.25 weight % and 0.1 weight % and 0.4 weight % and 0.2 weight %. The “% MIC alone” value in assay [5] was 1 weight % and 2 weight %.
Consider `COC(=O)c1ccc(O)cc1` [B4, methyl 4-hydroxybenzoate], for which the microbial growth percentage is 51% in assay [1] (0.25 weight %); 44% in assay [1] (0.5 weight %); 19% in assay [1] (1 weight %); 67% in assay [2] (0.025 weight %); 40% in assay [2] (0.05 weight %); 28% in assay [2] (0.1 weight %). Besides, the microbial growth percentage in assay [2] (0.2 weight %) worked out at 12%; in assay [3] (0.0625 weight %) it was 187%; in assay [3] (0.125 weight %), 150%; in assay [3] (0.25 weight %), 142%; in assay [3] (0.5 weight %) it was 1%. The MIC alone in assay [1] is 1 weight %; in assay [2], 0.2 weight %. In assay [3], the “MIC of compound alone” value is on record as 0.5 weight %.
With `CCCCCCCC(=O)c1ccc(O)c(C(=O)O)c1` [B6, 5-n-octanoylsalicylic acid], the microbial growth percentage is listed as 66% in assay [2] (0.0125 weight %); 40% in assay [2] (0.025 weight %); 30% in assay [2] (0.05 weight %); 1% in assay [2] (0.1 weight %); 98% in assay [4] (compound alone, 0.025 weight %); 97% in assay [4] (compound alone, 0.05 weight %). Also, the microbial growth percentage in assay [4] (compound alone, 0.1 weight %) is 17%; in assay [5] (0.0125 weight %), 28%; in assay [5] (0.025 weight %), 2%. The MIC alone in assay [2] is 0.1 weight %. Also, in assay [4] (setting [7]), the “MIC of compound alone” value is listed as 0.1 weight %. Also, in assay [5], the “% MIC alone” value is 0.025 weight %.
Turning to `CC(=O)c1c([O-])cc(C)oc1=O.[Na+]` [B8, sodium dehydroacetate], the microbial growth percentage is 28% in assay [2] (0.00125 weight %); 15% in assay [2] (0.0025 weight %); 97% in assay [4] (setting [6]); 29% in assay [4] (compound alone, 0.005 weight %); 3% in assay [4] (compound alone, 0.01 weight %); 3% in assay [4] (compound alone, 0.02 weight %). Besides, the MIC alone in assay [2] amounted to 0.0025 weight %. The “MIC of compound alone” value in assay [4] (setting [7]) amounted to 0.02 weight %.
As to `CCCOC(=O)c1ccc(O)cc1` [B5, propyl 4-hydroxybenzoate], the microbial growth percentage was 52% in assay [2] (0.025 weight %); 33% in assay [2] (0.05 weight %); 21% in assay [2] (0.1 weight %); 76% in assay [3] (0.125 weight %); 45% in assay [3] (0.25 weight %); 42% in assay [3] (0.5 weight %). In addition, the microbial growth percentage in assay [3] (1 weight %) amounted to 24%. For the same compound, in assay [2], the MIC alone is 0.1 weight %. Moreover, the “MIC of compound alone” value in assay [3] amounted to 1 weight %.
Regarding `C/C=C/C=C/C(=O)[O-].[K+]` [B3, potassium sorbate], the microbial growth percentage in assay [4] (compound alone, 0.025 weight %) was determined as 58%; in assay [4] (compound alone, 0.05 weight %) it was 37%; in assay [4] (compound alone, 0.1 weight %), 10%; in assay [5] (1 weight %), 22%; in assay [5] (2 weight %), 10%. The “% MIC alone” value in assay [4] (compound alone, first concentration giving growth <= 25%) amounted to 0.1 weight %; in assay [5], 2 weight %.
With `O=C([O-])c1ccccc1.[Na+]` [B1, sodium benzoate], the microbial growth percentage is listed as 51% in assay [1] (0.0625 weight %); 34% in assay [1] (0.125 weight %); 31% in assay [1] (0.25 weight %); 5% in assay [1] (0.5 weight %); 55% in assay [2] (0.025 weight %); 33% in assay [2] (0.05 weight %). Further, the microbial growth percentage in assay [2] (0.1 weight %) worked out at 24%; in assay [2] (0.2 weight %), 11%; in assay [3] (0.0625 weight %), 93%; in assay [3] (0.125 weight %), 96%; in assay [3] (0.25 weight %), 116%; in assay [3] (0.5 weight %), 89%. Besides, the microbial growth percentage in assay [3] (1 weight %) turned out to be 0%. Moreover, the results for the MIC alone in assay [1] and in assay [2] were 0.5 weight % and 0.2 weight %, respectively. Also, the “MIC of compound alone” value in assay [3] stood at 1 weight %.
